Measured values as given in patent US20040185566A1, “Polypeptides toxic to nematodes and methods of use” (priority 2003, published 2004).
Like-named read-outs stand apart in the source and are kept apart here. Where a SMILES comes first, the peptide text is derived from it. [ ]: non-standard residue; d: D form. The star is where a group is joined. Sta = CC(C)C[C@H](N)[C@@H](O)CC(=O)O; Isovaleryl = CC(C)CC(=O)*

Molecular target: SMP #1 (Serratia marcescens, UniProt P23694, N428Q/P266L)
Format: biochemical, S. marcescens NRRL B-23112

## CC(C)C[C@H](NC(=O)[C@@H](O)[C@H](N)Cc1ccccc1)C(=O)O [bestatin]
Bestatin 80 μg/ml
  inhibition of SMP #1 proteolytic activity: not inhibited

## CC(C)C[C@H](NC(=O)[C@@H](NC(=O)N[C@@H](Cc1ccccc1)C(=O)O)[C@@H]1CCN=C(N)N1)C(=O)N[C@H](C=O)Cc1ccccc1 [chymostatin]
Chymostatin 50 μg/ml
  inhibition of SMP #1 proteolytic activity: not inhibited

## CC(=O)N[C@@H](CC(C)C)C(=O)N[C@@H](CC(C)C)C(=O)N[C@H](C=O)CCCNC(=N)N [leupeptin]
Leupeptin 4 μg/ml
  inhibition of SMP #1 proteolytic activity: not inhibited

## CC(C)CC(=O)N[C@H](C(=O)N[C@H](C(=O)N[C@@H](CC(C)C)[C@@H](O)CC(=O)N[C@@H](C)C(=O)N[C@@H](CC(C)C)[C@@H](O)CC(=O)O)C(C)C)C(C)C [pepstatin] (Isovaleryl-VV[Sta]A[Sta]-OH)
Pepstatin 4 μg/ml
  inhibition of SMP #1 proteolytic activity: not inhibited

## O=S(=O)(F)Cc1ccccc1 [phenylmethylsulfonyl fluoride]
Phenylmethylsulfonyl fluoride 400 μ/ml
  inhibition of SMP #1 proteolytic activity: not inhibited

## CC(C)C[C@H](NP(=O)(O)O[C@@H]1O[C@@H](C)[C@H](O)[C@@H](O)[C@H]1O)C(=O)N[C@@H](Cc1c[nH]c2ccccc12)C(=O)O [phosphoramidon]
Phosphoramidon 660 μ/ml
  inhibition of SMP #1 proteolytic activity: not inhibited
